Measured values from patent US20240398828A1, “HETERO-ATOM CONTAINING COMPOUNDS AND USES THEREOF” (Kumquat Biosciences Inc., priority 2021, published 2024).

Tests used:
PTPN2 (i.e., TC-PTP) = target: T1, PTPN2 (i.e., TC-PTP) (Homo sapiens, UniProt P17706); assay: Phosphatase activity assay (DiFMUP substrate), PTPN2; format: biochemical; conditions: compounds binned ≤1 uM or >1 uM
T1 sequence (P17706 1-415): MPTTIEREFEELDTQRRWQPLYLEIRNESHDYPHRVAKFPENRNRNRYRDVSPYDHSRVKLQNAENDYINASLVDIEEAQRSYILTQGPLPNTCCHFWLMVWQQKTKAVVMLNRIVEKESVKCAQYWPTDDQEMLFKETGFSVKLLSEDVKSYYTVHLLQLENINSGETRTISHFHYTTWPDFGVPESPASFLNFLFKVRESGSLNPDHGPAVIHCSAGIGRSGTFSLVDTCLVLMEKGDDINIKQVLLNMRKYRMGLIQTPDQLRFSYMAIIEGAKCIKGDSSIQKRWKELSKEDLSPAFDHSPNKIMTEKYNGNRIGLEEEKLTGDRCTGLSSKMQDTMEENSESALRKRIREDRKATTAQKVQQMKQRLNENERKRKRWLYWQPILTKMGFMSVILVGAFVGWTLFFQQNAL
Summary of the method: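 Continuous fluorogenic readout of DiFMUP dephosphorylation at room temperature, substrate set at Km for each phosphatase (about 45 μM in the PTPN2 assay). The buffer contains 1 mM DTT and 0.001% Tween-20, pH 7.5.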

PTPN1 (i.e., PTP1B) = target: T2, PTPN1 (i.e., PTP1B) (Homo sapiens, UniProt P18031); assay: Phosphatase activity assay (DiFMUP substrate), PTP1B; format: biochemical; conditions: compounds binned ≤1 uM or >1 uM
T2 sequence (P18031 1-435): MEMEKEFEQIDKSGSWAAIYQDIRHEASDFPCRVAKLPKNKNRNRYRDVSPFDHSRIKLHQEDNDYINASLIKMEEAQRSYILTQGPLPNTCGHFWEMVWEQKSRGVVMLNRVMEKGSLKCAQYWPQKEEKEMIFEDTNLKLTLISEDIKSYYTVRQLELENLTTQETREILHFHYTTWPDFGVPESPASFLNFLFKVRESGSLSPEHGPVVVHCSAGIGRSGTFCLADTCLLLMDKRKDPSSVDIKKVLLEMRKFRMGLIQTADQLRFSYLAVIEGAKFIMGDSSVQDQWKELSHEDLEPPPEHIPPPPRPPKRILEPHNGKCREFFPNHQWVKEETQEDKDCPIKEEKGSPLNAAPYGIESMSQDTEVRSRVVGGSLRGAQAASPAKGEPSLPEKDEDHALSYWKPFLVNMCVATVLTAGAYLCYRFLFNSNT
Summary of the method: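 First, serially diluted inhibitor is mixed about 2 minutes with enzyme in pH 7.5 HEPES/NaCl/EDTA/DTT/Tween-20 buffer. Next, DiFMUP is added at the enzyme's Km, approximately 45 μM for PTPN2. Finally, DiFMU appearance is read continuously at room temperature and rates are fitted for IC50.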

Compound	IC50 (PTPN2 (i.e., TC-PTP)) [nM]	IC50 (PTPN1 (i.e., PTP1B)) [nM]
O=C1CN(c2c(O)ccc(C3CNC(CO)C3)c2F)S(=O)(=O)N1 (stereo not shown) [Compound 327, 5-(2-fluoro-6-hydroxy-3-(5-(hydroxymethyl)pyrrolidin-3-yl)phenyl)-1,2,5-thiadiazolidin-3-one 1,1-dioxide]	≤ 1000	≤ 1000
O=C1CN(c2c(O)ccc(-c3cn(C4CCOCC4)cn3)c2F)S(=O)(=O)N1 [Compound 328, 5-(2-fluoro-6-hydroxy-3-(1-(tetrahydro-2H-pyran-4-yl)-1H-imidazol-4-yl)phenyl)-1,2,5-thiadiazolidin-3-one 1,1-dioxide]	≤ 1000	≤ 1000
O=C1CN(c2c(O)ccc(-c3cc(C4CC4)n(CC4CCNC4)n3)c2F)S(=O)(=O)N1 (stereo not shown) [Compound 329, 5-(3-(5-cyclopropyl-1-(pyrrolidin-3-ylmethyl)-1H-pyrazol-3-yl)-2-fluoro-6-hydroxyphenyl)-1,2,5-thiadiazolidin-3-one 1,1-dioxide]	≤ 1000	≤ 1000
NC1CC=C(c2ccc(O)c(N3CC(=O)NS3(=O)=O)c2F)C1 (stereo not shown) [Compound 330, 5-(3-(4-aminocyclopent-1-en-1-yl)-2-fluoro-6-hydroxyphenyl)-1,2,5-thiadiazolidin-3-one 1,1-dioxide]	≤ 1000	≤ 1000
CCn1nc(-c2ccc(O)c(N3CC(=O)NS3(=O)=O)c2F)cc1C1CC1 [Compound 331, 5-(3-(5-cyclopropyl-1-ethyl-1H-pyrazol-3-yl)-2-fluoro-6-hydroxyphenyl)-1,2,5-thiadiazolidin-3-one 1,1-dioxide]	≤ 1000	≤ 1000
O=C1CN(c2c(O)ccc(-c3cc(N4CCCCC4)n[nH]3)c2F)S(=O)(=O)N1 [Compound 332, 5-(2-fluoro-6-hydroxy-3-(3-(piperidin-1-yl)-1H-pyrazol-5-yl)phenyl)-1,2,5-thiadiazolidin-3-one 1,1-dioxide]	≤ 1000	≤ 1000
Cn1ccc(-c2cc(-c3ccc(O)c(N4CC(=O)NS4(=O)=O)c3F)[nH]n2)c1 [Compound 333, 5-(2-fluoro-6-hydroxy-3-(3-(1-methyl-1H-pyrrol-3-yl)-1H-pyrazol-5-yl)phenyl)-1,2,5-thiadiazolidin-3-one 1,1-dioxide]	≤ 1000	≤ 1000
CC(C)CCc1ncc(-c2ccc(O)c(N3CC(=O)NS3(=O)=O)c2F)[nH]1 [Compound 334, 5-(2-fluoro-6-hydroxy-3-(2-isopentyl-1H-imidazol-5-yl)phenyl)-1,2,5-thiadiazolidin-3-one 1,1-dioxide]	≤ 1000	≤ 1000
O=C1CN(c2c(O)ccc(-c3ccc(NS(=O)(=O)C4CCC4)cc3)c2F)S(=O)(=O)N1 [Compound 335, N-(3′-(1,1-dioxido-4-oxo-1,2,5-thiadiazolidin-2-yl)-2′-fluoro-4′-hydroxy-[1,1′-biphenyl]-4-yl)cyclobutanesulfonamide]	≤ 1000	≤ 1000
O=C1CN(c2c(O)ccc(-c3cc(C(=O)N4CCOCC4)n[nH]3)c2F)S(=O)(=O)N1 [Compound 336, 5-(2-fluoro-6-hydroxy-3-(3-(morpholine-4-carbonyl)-1H-pyrazol-5-yl)phenyl)-1,2,5-thiadiazolidin-3-one 1,1-dioxide]	≤ 1000	≤ 1000
O=C1CN(c2c(O)ccc(-c3cc(C(F)F)n[nH]3)c2F)S(=O)(=O)N1 [Compound 337, 5-(3-(3-(difluoromethyl)-1H-pyrazol-5-yl)-2-fluoro-6-hydroxyphenyl)-1,2,5-thiadiazolidin-3-one 1,1-dioxide]	≤ 1000	≤ 1000
CC(C)CCS(=O)(=O)N1CC=C(c2ccc(O)c(N3CC(=O)NS3(=O)=O)c2F)C1 [Compound 338, 5-(2-fluoro-6-hydroxy-3-(1-(isopentylsulfonyl)-2,5-dihydro-1H-pyrrol-3-yl)phenyl)-1,2,5-thiadiazolidin-3-one 1,1-dioxide]	≤ 1000	≤ 1000
O=C1CN(c2c(O)ccc(-c3cc(CCC4CCC4)n[nH]3)c2F)S(=O)(=O)N1 [Compound 339, 5-(3-(3-(2-cyclobutylethyl)-1H-pyrazol-5-yl)-2-fluoro-6-hydroxyphenyl)-1,2,5-thiadiazolidin-3-one 1,1-dioxide]	≤ 1000	≤ 1000
Cc1cc(-c2ccc(O)c(N3CC(=O)NS3(=O)=O)c2F)nn1C1CC1 [Compound 340, 5-(3-(1-cyclopropyl-5-methyl-1H-pyrazol-3-yl)-2-fluoro-6-hydroxyphenyl)-1,2,5-thiadiazolidin-3-one 1,1-dioxide]	≤ 1000	≤ 1000
O=C1CN(c2c(O)ccc(-c3cnn(C4CCC(C(F)(F)F)CC4)c3)c2F)S(=O)(=O)N1 (stereo not shown) [Compound 341, 5-(2-fluoro-6-hydroxy-3-(1-(4-(trifluoromethyl)cyclohexyl)-1H-pyrazol-4-yl)phenyl)-1,2,5-thiadiazolidin-3-one 1,1-dioxide]	≤ 1000	≤ 1000
O=C1CN(c2c(O)ccc(-c3cnn(S(=O)(=O)C4CC4)c3)c2F)S(=O)(=O)N1 [Compound 342, 5-(3-(1-(cyclopropylsulfonyl)-1H-pyrazol-4-yl)-2-fluoro-6-hydroxyphenyl)-1,2,5-thiadiazolidin-3-one 1,1-dioxide]	≤ 1000	≤ 1000
O=C1CN(c2c(O)ccc(-c3cc(N4CCCC4)n[nH]3)c2F)S(=O)(=O)N1 [Compound 343, 5-(2-fluoro-6-hydroxy-3-(3-(pyrrolidin-1-yl)-1H-pyrazol-5-yl)phenyl)-1,2,5-thiadiazolidin-3-one 1,1-dioxide]	≤ 1000	≤ 1000
O=C1CN(c2c(O)ccc(-c3cc(N4CCCOCC4)n[nH]3)c2F)S(=O)(=O)N1 [Compound 344, 5-(3-(3-(1,4-oxazepan-4-yl)-1H-pyrazol-5-yl)-2-fluoro-6-hydroxyphenyl)-1,2,5-thiadiazolidin-3-one 1,1-dioxide]	≤ 1000	≤ 1000
Cn1nc(-c2ccc(O)c(N3CC(=O)NS3(=O)=O)c2F)cc1C1(N)CC1 [Compound 345, 5-(3-(5-(1-aminocyclopropyl)-1-methyl-1H-pyrazol-3-yl)-2-fluoro-6-hydroxyphenyl)-1,2,5-thiadiazolidin-3-one 1,1-dioxide]	≤ 1000	≤ 1000
COc1ccccc1-n1cnc(-c2ccc(O)c(N3CC(=O)NS3(=O)=O)c2F)c1 [Compound 346, 5-(2-fluoro-6-hydroxy-3-(1-(2-methoxyphenyl)-1H-imidazol-4-yl)phenyl)-1,2,5-thiadiazolidin-3-one 1,1-dioxide]	≤ 1000	≤ 1000
O=C1CN(c2c(O)ccc(-c3ncc(C4CC4)[nH]3)c2F)S(=O)(=O)N1 [Compound 347, 5-(3-(5-cyclopropyl-1H-imidazol-2-yl)-2-fluoro-6-hydroxyphenyl)-1,2,5-thiadiazolidin-3-one 1,1-dioxide]	≤ 1000	≤ 1000
COc1ccc(-n2cnc(-c3ccc(O)c(N4CC(=O)NS4(=O)=O)c3F)c2)cc1 [Compound 348, 5-(2-fluoro-6-hydroxy-3-(1-(4-methoxyphenyl)-1H-imidazol-4-yl)phenyl)-1,2,5-thiadiazolidin-3-one 1,1-dioxide]	≤ 1000	≤ 1000
N#CCn1nc(-c2ccc(O)c(N3CC(=O)NS3(=O)=O)c2F)cc1C1CC1 [Compound 349, 2-(5-cyclopropyl-3-(3-(1,1-dioxido-4-oxo-1,2,5-thiadiazolidin-2-yl)-2-fluoro-4-hydroxyphenyl)-1H-pyrazol-1-yl)acetonitrile]	≤ 1000	≤ 1000
CCC(CC)n1cnc(-c2ccc(O)c(N3CC(=O)NS3(=O)=O)c2F)c1 [Compound 350, 5-(2-fluoro-6-hydroxy-3-(1-(pentan-3-yl)-1H-imidazol-4-yl)phenyl)-1,2,5-thiadiazolidin-3-one 1,1-dioxide]	≤ 1000	≤ 1000
O=C1CN(c2c(O)ccc(-c3cnn(C4CCCOC4)c3)c2F)S(=O)(=O)N1 (stereo not shown) [Compound 351, 5-(2-fluoro-6-hydroxy-3-(1-(tetrahydro-2H-pyran-3-yl)-1H-pyrazol-4-yl)phenyl)-1,2,5-thiadiazolidin-3-one 1,1-dioxide]	≤ 1000	≤ 1000
O=C1CN(c2c(O)ccc(-c3cc(C#CC4CC4)n[nH]3)c2F)S(=O)(=O)N1 [Compound 352, 5-(3-(3-(cyclopropylethynyl)-1H-pyrazol-5-yl)-2-fluoro-6-hydroxyphenyl)-1,2,5-thiadiazolidin-3-one 1,1-dioxide]	≤ 1000	≤ 1000
